Entries after “also recorded” stand apart in the source; their conditions may differ.
Legend:
[1] = target: human dopamine D2 receptor (Homo sapiens, UniProt P14416); test: PDSP radioligand binding assay at dopamine D2 receptor; conditions: primary assay at 10 μM; not progressed to secondary assay
dopamine D1 receptor = dopamine D1 receptor (Macaca mulatta, UniProt O77680); test: [35S]GTPγS binding stimulation in HEK293-rh D1 cells; format: cell-based, rhesus macaque; conditions: compared with dopamine as full agonist
dopamine D3 receptor [2] = target: T1, dopamine D3 receptor (Homo sapiens, UniProt P35462); test: [35S]GTPγS binding in CHO-hD3 cells; format: cell-based; conditions: compared with dopamine as full agonist
dopamine D3 receptor [3] = target: T1, dopamine D3 receptor; test: PDSP radioligand binding assay at dopamine D3 receptor; conditions: versus 22c

Sequence of human dopamine D2 receptor (P14416 whole entry): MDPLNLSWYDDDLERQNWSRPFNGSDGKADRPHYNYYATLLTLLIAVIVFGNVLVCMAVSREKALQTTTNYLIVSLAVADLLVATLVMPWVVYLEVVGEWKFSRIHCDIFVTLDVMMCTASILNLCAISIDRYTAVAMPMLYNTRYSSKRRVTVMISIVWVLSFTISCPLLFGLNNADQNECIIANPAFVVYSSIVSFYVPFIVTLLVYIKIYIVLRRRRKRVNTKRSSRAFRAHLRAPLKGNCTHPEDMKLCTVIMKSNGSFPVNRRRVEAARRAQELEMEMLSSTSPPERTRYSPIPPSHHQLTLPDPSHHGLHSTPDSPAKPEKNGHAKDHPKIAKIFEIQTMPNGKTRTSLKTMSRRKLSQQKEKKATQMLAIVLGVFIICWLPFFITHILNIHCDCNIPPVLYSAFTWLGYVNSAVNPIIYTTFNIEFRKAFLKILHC
T1 sequence (P35462 whole entry): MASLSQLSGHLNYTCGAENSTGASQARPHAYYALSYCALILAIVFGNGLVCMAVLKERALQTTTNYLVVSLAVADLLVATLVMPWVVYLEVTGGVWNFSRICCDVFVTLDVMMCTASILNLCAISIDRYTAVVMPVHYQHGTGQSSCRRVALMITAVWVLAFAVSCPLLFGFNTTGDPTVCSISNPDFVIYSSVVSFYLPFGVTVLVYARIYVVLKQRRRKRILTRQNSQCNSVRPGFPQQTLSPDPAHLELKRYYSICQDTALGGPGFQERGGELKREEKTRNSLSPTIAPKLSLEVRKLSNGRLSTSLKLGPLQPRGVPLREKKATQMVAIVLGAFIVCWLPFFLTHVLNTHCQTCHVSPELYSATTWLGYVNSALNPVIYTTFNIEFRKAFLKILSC
Sequence of dopamine D1 receptor (O77680 whole entry): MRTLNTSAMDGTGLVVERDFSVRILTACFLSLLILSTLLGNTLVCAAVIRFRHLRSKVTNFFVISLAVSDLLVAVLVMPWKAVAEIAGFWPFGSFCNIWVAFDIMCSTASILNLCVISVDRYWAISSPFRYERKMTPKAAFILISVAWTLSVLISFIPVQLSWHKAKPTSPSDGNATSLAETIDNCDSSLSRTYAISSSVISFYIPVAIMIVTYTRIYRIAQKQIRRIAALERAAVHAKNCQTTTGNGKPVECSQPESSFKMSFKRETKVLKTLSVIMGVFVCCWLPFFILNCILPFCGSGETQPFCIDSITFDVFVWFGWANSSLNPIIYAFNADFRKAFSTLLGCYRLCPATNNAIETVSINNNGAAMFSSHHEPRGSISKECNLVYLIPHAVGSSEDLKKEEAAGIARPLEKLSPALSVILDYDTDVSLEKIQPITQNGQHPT

| Compound | D2 receptor affinity in the primary assay [1] | further results |
| --- | --- | --- |
| CCOc1c(O)cc(Br)c2c1CN1CCc3cc(OC)c(O)cc3[C@@H]1C2 [Compound 20a, (S)-12-bromo-9-ethoxy-3-methoxy-5,8,13,13a-tetrahydro-6H-isoquinolino[3,2-a]isoquinoline-2,10-diol] | did not show any appreciable D2 receptor affinity |  |
| COCCOc1c(O)cc(Br)c2c1CN1CCc3cc(OC)c(O)cc3[C@@H]1C2 [Compound 20g, (S)-12-bromo-3-methoxy-9-(2-methoxyethoxy)-5,8,13,13a-tetrahydro-6H-isoquinolino[3,2-a]isoquinoline-2,10-diol] | did not show any appreciable D2 receptor affinity; also recorded: no activity |  |
| CCOc1c(O)ccc2c1CN1CCc3cc(OC)c(O)cc3[C@@H]1C2 [Compound 22a, (S)-9-ethoxy-3-methoxy-5,8,13,13a-tetrahydro-6H-isoquinolino[3,2-a]isoquinoline-2,10-diol] | lacked any appreciable affinity | intrinsic activity at D1 receptor (stimulation of GTPγ-S binding) (dopamine D1 receptor): lacked intrinsic activity; intrinsic activity at D3 receptor (stimulation of GTPγ-S binding) (dopamine D3 receptor [2]): lacked intrinsic activity |
| CCCCOc1c(O)ccc2c1CN1CCc3cc(OC)c(O)cc3[C@@H]1C2 [Compound 22c, (S)-9-butoxy-3-methoxy-5,8,13,13a-tetrahydro-6H-isoquinolino[3,2-a]isoquinoline-2,10-diol] | lacked any appreciable affinity |  |
| CCCCCCOc1c(O)ccc2c1CN1CCc3cc(OC)c(O)cc3[C@@H]1C2 [Compound 22e, (S)-9-(hexyloxy)-3-methoxy-5,8,13,13a-tetrahydro-6H-isoquinolino[3,2-a]isoquinoline-2,10-diol] | lacked any appreciable affinity |  |
| COCCOc1c(O)ccc2c1CN1CCc3cc(OC)c(O)cc3[C@@H]1C2 [Compound 22g, (S)-3-methoxy-9-(2-methoxyethoxy)-5,8,13,13a-tetrahydro-6H-isoquinolino[3,2-a]isoquinoline-2,10-diol] |  | fold higher D3 affinity than n-butyloxy analogue 22c (dopamine D3 receptor [3]): 4 fold |

— PMC5148686 (European journal of medicinal chemistry, 2016)
